According to the NIST ThermoML archive (doi:10.1016/j.jct.2017.12.023):

Experiment: refractive index (Na D-line) (dimensionless); xn = mol fraction of the nth substance listed
Details: 100 kPa, Liquid, Standard Abbe refractometry

CCOS(=O)(=O)[O-].CCn1cc[n+](C)c1 [1-ethyl-3-methylimidazolium ethyl sulfate] + CCCCCCO
refractive index
Details | x1 = 0.1016 | x1 = 0.2016 | x1 = 0.3005 | x1 = 0.3989 | x1 = 0.4975 | x1 = 0.5956 | x1 = 0.6647 | x1 = 0.7947 | x1 = 0.897 | x1 = 1
288.15 K | 1.42855 | 1.43639 | 1.44364 | 1.45017 | 1.45653 | 1.46223 | 1.46592 | 1.47274 | 1.47731 | 1.48155
293.15 K | 1.42666 | 1.4346 | 1.44194 | 1.44856 | 1.45499 | 1.46075 | 1.46447 | 1.47132 | 1.47593 | 1.48018
298.15 K | 1.42478 | 1.43283 | 1.44025 | 1.44701 | 1.45346 | 1.45927 | 1.46303 | 1.4699 | 1.47456 | 1.47882
303.15 K | 1.4229 | 1.43107 | 1.43858 | 1.44545 | 1.45193 | 1.4578 | 1.4616 | 1.46848 | 1.4732 | 1.47746
308.15 K | 1.42103 | 1.42932 | 1.43692 | 1.44387 | 1.4504 | 1.45631 | 1.46017 | 1.46706 | 1.47182 | 1.47611
313.15 K | 1.41917 | 1.42758 | 1.43525 | 1.44225 | 1.44886 | 1.45481 | 1.45872 | 1.46564 | 1.47044 | 1.47474
318.15 K | 1.41729 | 1.42582 | 1.43358 | 1.44065 | 1.44735 | 1.45333 | 1.45726 | 1.46423 | 1.46907 | 1.47341
323.15 K | 1.41543 | 1.42407 | 1.43195 | 1.4391 | 1.44582 | 1.45184 | 1.45582 | 1.46285 | 1.46769 | 1.47206
